# Measured values published in patent publication US20250206729A1, “DUAL RAF AND TUBULIN INHIBITORS AND METHODS OF USE THEREOF” (Deciphera Pharmaceuticals, LLC, priority 2023, published 2025).
# Key:
# [1] = molecular target: T1, C-Raf kinase (SEQ ID NO: 2) (Homo sapiens, UniProt P04049, Y340D/Y341D); test: Biochemical assay for C-Raf (coupled pyruvate kinase/lactate dehydrogenase); conditions: 1 mM ATP; read-out: CRAF (inhibition of biochemical activity, IC50)
# T1 construct: C-Raf residues 306-end; Y340D, Y341D with N-; GST (N); purchased Sigma
# T1 sequence (P04049 307-648 Y340D/Y341D): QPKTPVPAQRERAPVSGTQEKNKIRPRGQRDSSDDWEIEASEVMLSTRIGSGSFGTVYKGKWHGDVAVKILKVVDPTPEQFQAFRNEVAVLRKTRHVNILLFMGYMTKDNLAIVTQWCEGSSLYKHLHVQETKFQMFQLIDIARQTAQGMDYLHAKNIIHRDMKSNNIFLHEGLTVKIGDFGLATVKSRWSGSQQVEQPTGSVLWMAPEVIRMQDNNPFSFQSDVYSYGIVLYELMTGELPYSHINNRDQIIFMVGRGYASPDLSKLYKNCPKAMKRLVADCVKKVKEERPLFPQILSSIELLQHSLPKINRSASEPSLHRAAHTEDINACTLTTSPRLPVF
# [2] = molecular target: T2, B-Raf kinase (SEQ ID NO: 1) (Homo sapiens, UniProt P15056); test: Biochemical assay for B-Raf (coupled pyruvate kinase/lactate dehydrogenase); conditions: 1 mM ATP; read-out: BRAF (inhibition of biochemical activity, IC50)
# T2 construct: GST (N); purchased Sigma
# T2 sequence (P15056 416-766): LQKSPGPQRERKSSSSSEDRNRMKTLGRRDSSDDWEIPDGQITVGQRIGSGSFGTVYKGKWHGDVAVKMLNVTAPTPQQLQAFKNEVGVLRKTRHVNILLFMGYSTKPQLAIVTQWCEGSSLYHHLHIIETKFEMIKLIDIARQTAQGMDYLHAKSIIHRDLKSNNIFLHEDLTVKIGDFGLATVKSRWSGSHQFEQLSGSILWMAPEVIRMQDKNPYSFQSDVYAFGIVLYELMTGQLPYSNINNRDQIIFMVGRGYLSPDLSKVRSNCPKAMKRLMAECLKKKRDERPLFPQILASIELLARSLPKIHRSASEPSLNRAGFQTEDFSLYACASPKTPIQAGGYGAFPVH
# HPAF-II cells = test: HPAF-II cell proliferation assay; format: cell-based; conditions: Homo sapiens, HPAF-II; 115 to 120 h incubation, resazurin; read-out: HPAF-II (inhibition of cell proliferation, IC50)
# Protocol: (§1) HPAF-II cells (catalog #CRL-1997) are obtained from the American Type Culture Collect (ATCC, Manassas, VA). Briefly, cells are grown in Minimum Essential Media supplemented with 10% characterized fetal bovine serum (Invitrogen, Carlsbad, CA) and 1% Penicillin/Streptomycin/L-Glutamine at 37° C., 5% CO2, and 95% humidity. Cells are expanded until reaching 70-95% confluency at which point they are sub-cultured or harvested for assay use. A serial dilution of test compound is dispensed into a 384-well black clear bottom plate in triplicate. 750 cells are added per well in 50 μL complete growth medium in the 384-well plate. Plates are incubated for 115 to 120 h at 37° C., 5% CO2, and 95% humidity. At the end of the incubation, 40 μL of a […] solution of resazurin (Sigma, St. Louis, MO) in PBS is added to each well of the plate and plates are incubated for an additional 18 to 24 h at 37° C., 5% CO2, and 95% humidity. Plates are read on a Synergy2 or equivalent reader (Biotek, Winooski, VT) using an excitation of 540 nm and an emission of 600 nm. Data is analyzed using Prism software (Graphpad, San Diego, CA) to calculate IC50 values.
# Pa16c cells = test: Pa16c cell proliferation assay; format: cell-based; conditions: 67 to 72 h incubation, resazurin; read-out: Pa16c (inhibition of cell proliferation, IC50)
# Protocol: as §1, with “Pa16c” for “HPAF-II”, “cells” for “cells (catalog #CRL-1997)”, “Dr. Channing Der, University of North Carolina at Chapel Hill.” for “the American Type Culture Collect (ATCC, Manassas, VA).”, “Dulbecco's Modified Eagle Medium” for “Minimum Essential Media”, “67” for “115”, “72” for “120”
# HCT-116 cells = test: HCT-116 cell proliferation assay; format: cell-based; conditions: Homo sapiens, HCT-116; 67 to 72 h incubation, resazurin; read-out: HCT-116 (inhibition of cell proliferation, IC50)
# Protocol: HCT-116 cells (catalog #CCL-247) are obtained from the American Type Culture Collect (ATCC, Manassas, VA). Briefly, cells are grown in McCoy's 5A supplemented with 10% characterized fetal bovine serum (Invitrogen, Carlsbad, CA) and 1% Penicillin/Streptomycin/L-Glutamine at 37° C., 5% CO2, and 95% humidity. Cells are expanded until reaching 70-95% confluency at which point they are sub-cultured or harvested for assay use. A serial dilution of test compound is dispensed into a 384-well black clear bottom plate in triplicate. 375 cells are added per well in 50 μL complete growth medium in the 384-well plate. Plates are incubated for 67 to 72 h at 37° C., 5% CO2, and 95% humidity. At the end of the incubation, 40 μL of a […] solution of resazurin (Sigma, St. Louis, MO) in PBS is added to each well of the plate and plates are incubated for an additional 4 to 5 h at 37° C., 5% CO2, and 95% humidity. Plates are read on a Synergy2 or equivalent reader (Biotek, Winooski, VT) using an excitation of 540 nm and an emission of 600 nm. Data is analyzed using Prism software (Graphpad, San Diego, CA) to calculate IC50 values.
# MiaPaca-2 cells = test: MiaPaca-2 cell proliferation assay; format: cell-based; conditions: Homo sapiens, MIA PaCa-2; 67-72 h incubation, resazurin; read-out: MiaPaca-2 (inhibition of cell proliferation, IC50)
# Protocol: Miapaca-2 cells (catalog #CRL-1420) are obtained from the American Type Culture Collect (ATTC, Manassas, VA). Briefly, cells were grown in DMEM supplemented with 10% characterized fetal bovine serum (Invitrogen, Carlsbad, CA), 2.5% New Zealand sourced horse serum and 1% Penicillin/Streptomycin/L-Glutamine at 37° C., 5% CO2, and 95% humidity. Cells are expanded until reaching 70-95% confluency at which point they are sub-cultured or harvested for assay use. A serial dilution of test compound is dispensed into a 384-well black clear bottom plate in triplicate. Seven hundred fifty cells are added per well in 50 μL complete growth medium in the 384-well plate. Plates are incubated for 67-72 h at 37° C., 5% CO2, and 95% humidity. At the end of the incubation, 10 μL of a 440 μM solution of resazurin (Sigma, St. Louis, MO) in PBS is added to each well of the plate and plates are incubated for an additional 5-6 h at 37° C., 5% CO2, and 95% humidity. Plates are read on a Synergy2 or equivalent reader (Biotek, Winooski VT) using an excitation of 540 nm and an emission of 600 nm. Data is analyzed using Prism software (GraphPad, San Diego, CA) to calculate IC50 values.
Structure (SMILES),IC50 [1],IC50 [2],IC50 (HPAF-II cells),IC50 (Pa16c cells),IC50 (HCT-116 cells),IC50 (MiaPaca-2 cells)
Cc1ccc(NC(=O)c2cc(C3CC3)cnn2)cc1-c1cc(N2CCOCC2)ncn1 [Example 40],0.5 to 1 µM,0.1 to 0.5 µM,0.5 to 1 µM,1 to 10 µM,0.5 to 1 µM,1 to 10 µM
Cc1ccc(NC(=O)c2cc(C(F)(F)F)cnn2)cc1-c1cccc(N2CCOCC2)c1 [Example 41],< 0.1 µM,0.1 to 0.5 µM,< 0.1 µM,0.1 to 0.5 µM,0.1 to 0.5 µM,0.1 to 0.5 µM
Cc1cc(-c2cc(NC(=O)c3cc(C4CCC4)cnn3)ccc2C)cc(N2CCOCC2)n1 [Example 42],< 0.1 µM,< 0.1 µM,0.1 to 0.5 µM,0.1 to 0.5 µM,0.1 to 0.5 µM,0.1 to 0.5 µM
Cc1ccc(NC(=O)c2cc(C(F)(F)F)cnn2)cc1-c1nc(OCCO)cc(N2CCOCC2)n1 [Example 43],1 to 10 µM,1 to 10 µM,< 0.1 µM,0.1 to 0.5 µM,0.1 to 0.5 µM,< 0.1 µM
Cc1ccc(NC(=O)c2cc(C3CC3)cnn2)cc1-c1nc(N[C@H](C)CO)cc(N2CCOCC2)n1 [Example 45],0.5 to 1 µM,1 to 10 µM,0.5 to 1 µM,1 to 10 µM,0.5 to 1 µM,0.5 to 1 µM
Cc1ccc(NC(=O)c2cc(C3CC3)cnn2)cc1-c1cccc(N2CCOCC2)c1 [Example 46],< 0.1 µM,0.1 to 0.5 µM,0.1 to 0.5 µM,0.1 to 0.5 µM,0.1 to 0.5 µM,0.5 to 1 µM
Cc1ccc(NC(=O)c2cncc(C(F)(F)F)c2)cc1-c1cc(OCCO)nc(N2CCOCC2)c1 [Example 47],< 0.1 µM,< 0.1 µM,0.5 to 1 µM,1 to 10 µM,0.1 to 0.5 µM,0.5 to 1 µM
Cc1ccc(NC(=O)c2cc(C3CCC3)cnn2)cc1-c1cc(OCCO)nc(N2CCOCC2)c1 [Example 50],< 0.1 µM,< 0.1 µM,< 0.1 µM,< 0.1 µM,< 0.1 µM,< 0.1 µM
Cc1ccc(NC(=O)c2cc(Cl)cnn2)cc1-c1ccnc(N2CCOCC2)c1 [Example 51],0.5 to 1 µM,1 to 10 µM,0.5 to 1 µM,1 to 10 µM,0.5 to 1 µM,1 to 10 µM
Cc1ccc(NC(=O)c2cc(C3CC3)cnn2)cc1-c1nccc(N2CCOCC2)n1 [Example 52],1 to 10 µM,1 to 10 µM,1 to 10 µM,1 to 10 µM,1 to 10 µM,1 to 10 µM
C=C(C)c1cncc(C(=O)Nc2ccc(C)c(-c3cc(N[C@H](C)CO)nc(N4CCOCC4)c3)c2)n1 [Example 53],< 0.1 µM,< 0.1 µM,1 to 10 µM,1 to 10 µM,1 to 10 µM,1 to 10 µM
Cc1ccc(NC(=O)c2cnc(C(C)C)nc2)cc1-c1cc(N[C@H](C)CO)nc(N2CCOCC2)c1 [Example 54],< 0.1 µM,0.1 to 0.5 µM,1 to 10 µM,1 to 10 µM,1 to 10 µM,1 to 10 µM
Cc1ccc(NC(=O)c2cc(C3CC3)cnn2)cc1-c1cncc(N2CCOCC2)n1 [Example 55],0.5 to 1 µM,1 to 10 µM,1 to 10 µM,1 to 10 µM,1 to 10 µM,1 to 10 µM
Cc1ccc(NC(=O)c2cc(C(C)C)cnn2)cc1-c1cncc(N2CCOCC2)n1 [Example 56],0.1 to 0.5 µM,0.1 to 0.5 µM,1 to 10 µM,1 to 10 µM,1 to 10 µM,1 to 10 µM
"Cc1ccc(NC(=O)c2cncc(C(C)C)n2)cc1-c1cc(N[C@H](C)CO)nc(N2CCOCC2)c1 [Example 57, (R)—N-(3-(2-((1-hydroxypropan-2-yl)amino)-6-morpholinopyridin-4-yl)-4-methylphenyl)-6-isopropylpyrazine-2-carboxamide]",0.1 to 0.5 µM,0.1 to 0.5 µM,1 to 10 µM,1 to 10 µM,1 to 10 µM,1 to 10 µM
Cc1ccc(NC(=O)c2cc(C(C)C)cnn2)cc1-c1ccnc(N2CCOCC2)c1 [Example 58],< 0.1 µM,0.1 to 0.5 µM,0.1 to 0.5 µM,0.1 to 0.5 µM,0.1 to 0.5 µM,0.5 to 1 µM
Cc1ccc(NC(=O)c2cc(C(F)(F)F)cnn2)cc1-c1cncc(N2CCOCC2)n1 [Example 59],1 to 10 µM,1 to 10 µM,0.5 to 1 µM,0.1 to 0.5 µM,0.5 to 1 µM,0.5 to 1 µM
CNc1cc(-c2cc(NC(=O)c3cc(C4CC4)cnn3)ccc2C)cc(N2CCOCC2)n1 [Example 60],< 0.1 µM,0.1 to 0.5 µM,< 0.1 µM,< 0.1 µM,< 0.1 µM,< 0.1 µM
CNc1cc(-c2cc(NC(=O)c3cc(C(F)(F)F)cnn3)ccc2C)cc(N2CCOCC2)n1 [Example 61],< 0.1 µM,< 0.1 µM,< 0.1 µM,< 0.1 µM,< 0.1 µM,< 0.1 µM
Cc1ccc(NC(=O)c2cncc(C3CC3)n2)cc1-c1cc(N[C@H](C)CO)nc(N2CCOCC2)c1 [Example 62],< 0.1 µM,0.1 to 0.5 µM,1 to 10 µM,1 to 10 µM,1 to 10 µM,1 to 10 µM
Cc1ccc(NC(=O)c2cc(C(C)(F)F)cnn2)cc1-c1cc(OCCO)nc(N2CCOCC2)c1 [Example 63],< 0.1 µM,< 0.1 µM,< 0.1 µM,< 0.1 µM,< 0.1 µM,< 0.1 µM
Cc1ccc(NC(=O)c2cc(C(C)(F)F)cnn2)cc1-c1cc(NCCO)nc(N2CCOCC2)c1 [Example 64],< 0.1 µM,< 0.1 µM,< 0.1 µM,< 0.1 µM,< 0.1 µM,< 0.1 µM
